Read-outs that look alike come from different tables or passages of the source.
System: cancer cell lines from the cancer cell line encyclopedia (CCLE)
Experiment: Cell line profiling (CLiP) proliferation experiment
Format: cell-based
Settings: Homo sapiens; for IC50: read-out: Crossing Point; for EC50: read-out: Inflection Point
Description: Compound profiling experiment and data analysis was performed as previously described. Data was imported and plotted using the Tibco Spotfire DXP application. Lines were categorized as sensitive, intermediate and refractory as follows: Amax<-40 & Inflection Point <2 ~ Sensitive, Amax>-20 & Inflection Point >10 ~ Refractory, all else were called Intermediate. Cancer Cell line HG-U133 Plus 2 data was processed and normalized as described. […] Five sets of refractory cell lines were generated from the pool of refractory cell lines trying to match the lineage composition of the set of sensitive cell lines. The limma package was used as previously described to perform the statistical comparison.

[1] = SNU1, cell line SNU-1, stomach, undifferentiated_adenocarcinoma
[2] = SNU-16, cell line SNU-16, stomach, undifferentiated_adenocarcinoma
[3] = SNU-475, cell line SNU-475, liver, hepatocellular_carcinoma
[4] = SNU-C1, SNU-C1 (large_intestine, adenocarcinoma)
[5] = ST486, ST486 (haematopoietic_and_lymphoid_tissue, Burkitt_lymphoma)
[6] = SU-DHL-4, SU-DHL-4 (haematopoietic_and_lymphoid_tissue, diffuse_large_B_cell_lymphoma)
[7] = SU-DHL-5, SU-DHL-5 (haematopoietic_and_lymphoid_tissue, diffuse_large_B_cell_lymphoma)
[8] = SU-DHL-8, SU-DHL-8 (haematopoietic_and_lymphoid_tissue, diffuse_large_B_cell_lymphoma)
[9] = SW48, SW48 (large_intestine, adenocarcinoma)
[10] = SW480, SW480 (large_intestine, adenocarcinoma)
[11] = SW1088, SW 1088 (central_nervous_system, NS)
[12] = SW1417, SW1417 (large_intestine, adenocarcinoma)
[13] = SW-620, SW620 (large_intestine, adenocarcinoma)
[14] = TE-11, TE-11 (oesophagus, squamous_cell_carcinoma)
[15] = TE-15, TE-15 (oesophagus, squamous_cell_carcinoma)
[16] = TOV112D, TOV-112D (ovary, endometrioid_carcinoma)
[17] = WSUDLCL2, WSU-DLCL2 cell line, haematopoietic_and_lymphoid_tissue, diffuse_large_B_cell_lymphoma
[18] = ZR-75-1, ZR-75-1 cell line, breast, ductal_carcinoma

## CC(C)[C@@]12C[C@@H](O)[C@@](C)(O1)[C@@H]1CC[C@@H](C)[C@H]1[C@@H]2OC(=O)/C=C/c1ccccc1 [Englerin B]
[1]
  IC50: > 30 µM
  EC50: 12.1 µM
SNU-16, SNU-16 cells
  EC50: 13.5 µM
[2]
  IC50: 14.1 µM
  EC50: 13.5 µM
SNU-182, SNU-182 (liver)
  IC50: > 30 µM
SNU-182, cell line SNU-182, liver, hepatocellular_carcinoma
  IC50: > 30 µM
SNU-449, SNU-449 (liver)
  IC50: 19.1 µM
SNU-449, cell line SNU-449, liver, hepatocellular_carcinoma
  IC50: 19.1 µM
SNU-475, cell line SNU-475 (liver, hepatocellular_carcinoma)
  IC50: > 30 µM
[3]
  IC50: > 30 µM
  EC50: 12.9 µM
[4]
  IC50: > 30 µM
  EC50: 14.8 µM
SNU-C1, SNU-C1 cells
  IC50: > 30 µM
  EC50: 14.8 µM
[5]
  IC50: 13.5 µM
  EC50: 13.5 µM
SU-DHL10, SU-DHL-10 (haematopoietic_and_lymphoid_tissue, diffuse_large_B_cell_lymphoma)
  IC50: 18.5 µM
[6]
  IC50: 20.5 µM
  EC50: 20.5 µM
[7]
  IC50: 14.7 µM
  EC50: 14.7 µM
[8]
  IC50: 14.6 µM
  EC50: 13.2 µM
[9]
  IC50: 29 µM
  EC50: 29 µM
SW480, SW480 (large_intestine)
  IC50: > 30 µM
[10]
  IC50: > 30 µM
  EC50: 8.92 µM
SW837, SW837 (large_intestine)
  IC50: > 30 µM
SW837, SW837 (large_intestine, adenocarcinoma)
  IC50: > 30 µM
SW948, SW948 (large_intestine)
  IC50: > 30 µM
SW948, SW948 (large_intestine, adenocarcinoma)
  IC50: > 30 µM
SW1088, SW 1088 (central_nervous_system)
  IC50: > 30 µM
[11]
  IC50: > 30 µM
  EC50: 2.41 µM
SW1353, SW 1353 (bone)
  IC50: > 30 µM
SW1353, SW 1353 (bone, NS)
  IC50: > 30 µM
  EC50: 15.2 µM
[12]
  IC50: 26.1 µM
  EC50: 26.1 µM
SW1573, SW 1573 (lung)
  IC50: > 30 µM
SW1573, SW 1573 (lung, squamous_cell_carcinoma)
  IC50: > 30 µM
SW1783, SW 1783 (central_nervous_system, astrocytoma_Grade_III)
  IC50: > 30 µM
SW1783, cell line SW 1783 (central_nervous_system, astrocytoma_Grade_III)
  IC50: > 30 µM
SW1990, SW 1990 (pancreas)
  IC50: > 30 µM
SW1990, SW 1990 (pancreas, ductal_carcinoma)
  IC50: > 30 µM
[13]
  IC50: 12.8 µM
  EC50: 11.9 µM
T47D, T-47D (breast)
  IC50: > 30 µM
T47D, T-47D (breast, ductal_carcinoma)
  IC50: > 30 µM
T98G, T98G (central_nervous_system)
  IC50: > 30 µM
T98G, T98G (central_nervous_system, astrocytoma_Grade_IV)
  IC50: > 30 µM
TE-10, TE-10 (oesophagus)
  IC50: > 30 µM
TE-10, TE-10 (oesophagus, squamous_cell_carcinoma)
  IC50: > 30 µM
TE-11, TE-11 (oesophagus)
  IC50: 13.7 µM
[14]
  IC50: 13.7 µM
  EC50: 13.5 µM
[15]
  IC50: 26 µM
  EC50: 26 µM
THP-1, THP-1 (haematopoietic_and_lymphoid_tissue, acute_myeloid_leukaemia)
  IC50: 17.9 µM
TOV21G, TOV-21G (ovary, clear_cell_carcinoma)
  IC50: 21.8 µM
[16]
  IC50: 19.5 µM
  EC50: 21.5 µM
U-118-MG, U-118 MG (central_nervous_system, astrocytoma)
  IC50: > 30 µM
U-118-MG, cell line U-118 MG
  IC50: > 30 µM
U-251, U-251 MG (central_nervous_system)
  IC50: > 30 µM
U-251, U-251 MG (central_nervous_system, astrocytoma)
  IC50: > 30 µM
U-937, U-937 (haematopoietic_and_lymphoid_tissue, malignant_histiocytosis)
  IC50: 14.6 µM
UACC-62, UACC-62 (skin)
  IC50: > 30 µM
UACC-62, UACC-62 cell line, skin, NS
  IC50: > 30 µM
UACC-257, UACC-257 (skin, NS)
  IC50: 19.8 µM
UMUC3, UM-UC-3 cell line, urinary_tract, transitional_cell_carcinoma
  IC50: 25.6 µM
VM-CUB-1, VM-CUB1 cell line, urinary_tract, transitional_cell_carcinoma
  IC50: 18.9 µM
WM 266-4, WM-266-4 (skin)
  IC50: > 30 µM
WM 266-4, WM-266-4 cell line, skin, NS
  IC50: > 30 µM
WM793, WM-793 (skin)
  IC50: > 30 µM
WM793, WM-793 cell line, skin, NS
  IC50: > 30 µM
WM-115, WM-115 (skin)
  IC50: > 30 µM
WM-115, WM-115 cell line, skin, NS
  IC50: > 30 µM
[17]
  IC50: 14.2 µM
  EC50: 14.2 µM
YAPC, YAPC (pancreas)
  IC50: > 30 µM
YAPC, YAPC cell line, pancreas, NS
  IC50: > 30 µM
YKG-1, YKG1 (central_nervous_system)
  IC50: > 30 µM
YKG-1, YKG1 cell line, central_nervous_system, astrocytoma_Grade_IV
  IC50: > 30 µM
Z-138, Z-138 (haematopoietic_and_lymphoid_tissue)
  IC50: 15.2 µM
Z-138, Z-138 cell line, haematopoietic_and_lymphoid_tissue, mantle_cell_lymphoma
  IC50: 15.2 µM
[18]
  IC50: 21.1 µM
  EC50: 12.9 µM
ZR-75-30, ZR-75-30 (breast)
  IC50: > 30 µM
